Reference: patent US20130065314A1, “ALGAL TRANSFORMATION SYSTEMS, COMPOSITIONS AND METHODS” (PHYTOCENTRIC BIOTECH INC., priority 2011, published 2013)
Like-named read-outs stand apart in the source and are kept apart here.

Legend:
[1] = system: C. reinhardtii (Nit1-305,cw-15); test: Transformation of algal cells with plasmid DNA and CPP, selection on Zeocin plates; assay type: cell-based, Chlamydomonas reinhardtii
Experimental: Transformation experiments were conducted. […] Cell culture was grown in 900 ml of SGII+NH4NO3 medium, divided in 3 aliquots into 500 ml Erlenmeyer flasks each containing 300 ml of the culture. The culture was grown for two days until the cell growth reached mid-log phase and cell density reached to 1×10^6 cells ml^−1 (OD at 680 nm=0.6-0.8). Cells were collected at 3000 rpm for 10 minutes to obtain 9×10^8 cells in total. In all transformation experiments for Chlamydomonas reinhardtii, SGII+NH4NO3 medium was used in downstream experimental steps. […] Cells were washed after grown in SGII-NH4NO3 medium to remove NH4 traces. Cells were divided into 3 aliquots each of 3×10^8 cells. Two aliquots of the harvested cells were treated with cell wall degrading enzymes one with cellulase from Aspergillus niger (Sigma, Canada) and the other with lysozyme from chicken egg white (Sigma, Canada).
Lysozyme treatment: Lysozyme from chicken white egg was purchased (Sigma-Aldrich, Canada). Enzymatic assay protocol was modified from Sigma-Aldrich product information publication. For cell lysis/cell wall disruption, use a freshly prepared lysozyme solution (10 mg/ml) in sterilized 10 mM Tris-HCL, pH 8.0. Add 25 μl of a freshly prepared lysozyme to the required number (−5.0×10^7) of cells/transformation reaction, mix by vortexing for 3 seconds. Incubate the lysis mixture for 15 minutes at 37° C. […] Centrifuge the cells and discard the supernatant containing lysozyme. To stop the reaction, wash the cells twice with media and collect the cells at 3000 rpm for 10 minutes. Proceed to downstream applications and/or transformation experiment.
Cellulase treatment: Cellulase (EC 3.2.1.4) was purchased from Sigma-Aldrich, Canada. Enzymatic assay protocol was modified from Sigma-Aldrich product information publication. Just before use, prepare solution containing 8 units/ml (26.7 mg/ml) of cellulase in sterilized cold distilled water. Add 500 μl of a freshly prepared cellulase solution to the required number (−5.0×10^7) of cells, immediately mix by swirling. Incubate the lysis mixture for 15 minutes at 37° C. […] Centrifuge the cells and discard the supernatant containing lysozyme. To stop the reaction, wash the cells twice and collect the cells at 3000 rpm for 10 minutes. Proceed to downstream applications and/or transformation experiment.
The third aliquot was not treated with any enzyme.
After enzymatic treatments, the cells were washed twice with the medium to stop the reaction. Cells of each aliquot were re-suspended in fresh medium (cell concentration=3×10^8ml^−1) and used 300 μl of cell suspension (−5×10^7 number of cell) in each transformation reaction. Cells were transferred to 15 ml Falcon tube containing sterilized 300 mg glass beads of 0.5 mm size. Just prior to starting the next step, 1 μg plasmid DNA and one of the four ATT(s) tested were mixed. One of the four ATT-plasmid mixtures were added to the algal cells and beads suspended in media. The cells, ATT and DNA mixture and the beads were vortexed for 15 seconds. 10 ml of medium was added to the transformation reaction, and the tubes were incubated overnight with shaking at 100 rpm in incubator to allow cell recovery and expression of the gene. The cell suspensions were transferred to fresh tubes to remove beads and cells were spun by centrifugation for 5 minutes at 3000 rpm. The cells were re-suspended in 2 ml of 0.5% agar medium by gentle pipetting and were plated on 2% agar medium supplemented with 10 μg ml^−1 Zeocin.

linearized plasmid DNA = test: Gel mobility shift assay of peptide plasmid DNA complex formation; conditions: 200 ng linearized plasmid DNA, 1% agarose gel
Experimental: Non-covalent attachment was tested using a gel mobility shift assay. The gel mobility shift assay was used to determine the minimum peptide concentration needed bind to plasmid DNA and cause it to shift during electrophoresis. Based on a peptide-DNA charge ratio calculation increasing concentrations of peptide were added to 200 ng of linearized plasmid DNA until the charge of the DNA was neutralized by the peptide causing a mobility shift in the DNA during electrophoresis in a 1% agarose gel.

[2] = system: C. reinhardtii (Nit1-305,cw-15); test: PCR screening of transformant colonies (Zeocin specific primers); assay type: cell-based, Chlamydomonas reinhardtii; conditions: pSP124S linearized with KpnI, no pretreatment; 155 bp expected product (FIG. 11 panel A)
Experimental: Transformed colonies were picked from the selection plates and inoculated into liquid selection media to multiply cells to be used for genomic DNA isolation. Genomic DNA from 1×10^5 cells of untransformed algae and the transformants were isolated using DNeasy™ Blood & Tissue Kit (QIAGEN®). ReadyMix™ Taq PCR Reaction Mix with MgCl2 (Sigma, Canada) was used to prepare 20 μl PCR reactions. Thermal cycling conditions were initial denaturation at 95° C. for 5 minutes and 40 cycles of 95° C. for 30 s, 65° C. for 30 s and 72° C. for 1.5 min. A final primer extension cycle was performed at 72° C. for 10 min.

[3] = pSP124S linearized with EcoRI, 0.5 mm bead disruption, Zeocin 10 μg/ml (FIG. 9)
[4] = pSP124S linearized with KpnI, 0.5 mm bead disruption, Zeocin 10 μg/ml (FIG. 8)

(Arg)9 (RRRRRRRRR) [ATT4]
transformed colonies on selection plate [1, 3]: transformed
transformed colonies on selection plate [1, 4]: transformed
amount of peptide at which the shift occurred (linearized plasmid DNA): 120 ng

Tat (48-57) (GRKKRRQRRR) [ATT2]
transformed colonies on selection plate [1, 3]: transformed
transformed colonies on selection plate [1, 4]: transformed
amount of peptide at which the shift occurred (linearized plasmid DNA): 80 ng
PCR product with Zeocin specific primers in transformant colonies [2]: Lane 7 and 8 are positive

Transportan [ATT1]
transformation rate compared with the other three peptides [1]: higher
transformed colonies on selection plate [1]: transformed
amount of peptide at which the shift occurred (linearized plasmid DNA): 339 ng
PCR product with Zeocin specific primers in transformant colonies [2]: Lane 1 is positive
